Results from publication PMC9822155, “Synthesis and Antiproliferative Activity against Cancer Cells of Indole-Aryl-Amide Derivatives” (Molecules, 2022).

How the values were obtained:
[1] = test system: Jurkat J6 cells; assay: MTT viability assay, Jurkat J6; assay type: cell-based, human; conditions: Homo sapiens, Jurkat; MTT, 24 h
Text: (§1) To investigate whether the compounds have an antitumor activity, we performed in vitro viability assays against a panel of cancer cell lines: HT29 (human colorectal adenocarcinoma), HeLa (human cervical carcinoma), IGROV-1 (human ovarian carcinoma), MCF7 (human breast cancer), PC-3 (human prostate adenocarcinoma), and Jurkat J6 (human […]). The I407 (human embryonic intestinal) and 3T3 (mouse embryonic fibroblast) cells were used as controls. The growth inhibitory concentration was determined by incubating the cells with increasing concentrations (0.01–500 μM) of the compounds for 24 h. Data obtained from cell growth assays were elaborated to assess the concentration of cell viability (IC50) and selectivity indices (SI), and the results are shown in Table 2 and Table 3, respectively.
(§2) HT29 human colorectal adenocarcinoma cells, HeLa human cervix adenocarcinoma cells, MCF7 human breast adenocarcinoma cells, PC-3 human prostate adenocarcinoma cells, J6 Jurkat Clone E6-1 acute T cell leukemia, the healthy I407 human intestine cells, and mouse embryonic fibroblast 3T3 fibroblasts as controls cell lines were purchased from American Type Culture Collection (ATCC, Manassas, VA). The human ovarian cancer cell line IGROV1 has been kindly provided by Prof. Colnaghi (Istituto Nazionale Tumori (IRCCS) (Milano, Italy). Cells were cultured in RPMI 1640 medium (Labtek Eurobio, Milan, Italy), supplemented with 10% FCS (Euroclone, Milano, Italy) and 2 mM L-glutamine (Sigma-Aldrich, Milano, Italy), at 37 °C, and a 5% CO2 atmosphere. The compounds were dissolved in DMSO in a 30–40 mM stock solution. In cell treatments, the final DMSO concentration never exceeded 0.1%.
(§3) Cells were seeded at 1.5 × 10^4 cells/well in a 96-well culture plastic plate (Sarsted, Milan, Italy), and after 24 h of growth were exposed to increasing concentrations of each distinct compound (from 0.010 μM to 500 μM) solubilized in RPMI 1640 medium. MTT assay was performed according to the literature. In brief, after 24 h of treatment, the culture medium was replaced with 0.1 mL of 3-(4,5-dimethylthiazolyl-2)-2,5-diphenyltetrazolium bromide (MTT, Sigma-Aldrich, Milano, Italy) dissolved in PBS at the concentration of 0.2 mg/mL, and samples were incubated for 2 h at 37 °C. The absorbance at 570 nm was measured using a multiwell plate reader (Tecan, Männemorf, Switzerland), and data were analyzed by Prism GraphPad software, and expressed as IC50 μM.

[2] = test system: IGROV-1 (human ovarian carcinoma) cells; assay: MTT viability assay, IGROV-1; assay type: cell-based; conditions: 24 h
Text: as §1, §2, §3

[3] = test system: HeLa (human cervical carcinoma) cells; assay: MTT viability assay, HeLa; assay type: cell-based; conditions: for Selectivity Index IC503T3/ IC50HeLa: 3T3 normal cells as reference; for IC50: Homo sapiens, MTT, 24 h; for Selectivity Index IC50I407/ IC50HeLa: I407 normal cells as reference
Text: as §1, §2, §3

[4] = test system: HT29 (human colorectal adenocarcinoma) cells; assay: MTT viability assay, HT29; assay type: cell-based; conditions: for Selectivity Index IC503T3/ IC50HT29: 3T3 normal cells as reference; for IC50: Homo sapiens, HT-29, MTT, 24 h
Text: as §1, §2, §3

[5] = molecular target: T1, κ-OR (Homo sapiens, UniProt P41145); assay: Radioligand binding assay, κ-OR ([3H]U-69593 displacement); conditions: [3H]U-69593, membranes of CHO cells with human recombinant OR; ± SEM (n ≥ 3)
T1 construct: purchased PerkinElmer (Krakow, Poland); host or cells: CHO cells (membranes)
T1 sequence (P41145 whole entry): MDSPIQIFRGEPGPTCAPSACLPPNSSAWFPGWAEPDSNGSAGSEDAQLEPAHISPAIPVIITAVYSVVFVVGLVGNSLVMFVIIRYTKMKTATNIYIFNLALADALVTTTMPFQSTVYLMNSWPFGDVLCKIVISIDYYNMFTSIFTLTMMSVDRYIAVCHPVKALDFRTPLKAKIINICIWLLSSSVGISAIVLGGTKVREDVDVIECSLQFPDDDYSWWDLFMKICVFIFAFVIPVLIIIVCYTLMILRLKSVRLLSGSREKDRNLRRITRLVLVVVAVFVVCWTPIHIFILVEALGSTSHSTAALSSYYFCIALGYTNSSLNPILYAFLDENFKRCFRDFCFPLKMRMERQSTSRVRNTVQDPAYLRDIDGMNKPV
Procedure: (§4) In order to evaluate the affinity of the compounds for μ-, δ-, κ-ORs, radioligand binding assays were performed. Displacement of radioligands, [^3H]DAMGO (μ-OR selective), [^3H]deltorphin-2 (δ-OR selective), and [^3H]U-69593 (κ-OR selective) by the synthetic analogs was investigated in the commercial membranes of CHO cells transfected with human recombinant ORs. […] Due to the modest receptor affinities, the functional activity of the compounds was not investigated.
(§5) Opioid radioligands, [^3H]DAMGO, [^3H]deltorphin-2 and [^3H]U-69593, and human recombinant opioid receptors came from PerkinElmer (Krakow, Poland). GF/B glass fiber strips were purchased from Whatman (Brentford, UK).
(§6) To determine the affinity of peptide analogs at the respective receptors, competition binding experiments were performed. Commercial membranes of CHO cells stably expressing human opioid receptors and the competing radioligands, [^3H]DAMGO, [^3H]deltorphin-2, and [^3H]U-69593 for μ-OR, δ-OR, and κ-OR, respectively, were used. Membranes were incubated in 0.5 mL volume of 50 mM Tris/HCl (pH = 7.4), 0.5% bovine serum albumin (BSA), with a number of peptidase inhibitors (bacitracin, bestatin, captopril) and various concentrations of radioligands for 2 h at 25 °C. Non-specific binding was assessed in the presence of […]. Three independent experiments for each assay were carried out in duplicate. The data were analyzed by a nonlinear least square regression analysis computer program Graph Pad PRISM 6.0 (Graph Pad Software Inc., San Diego, CA, USA). The IC50 values were determined from the logarithmic concentration-displacement curves, and the values of the inhibitory constants (Ki) were calculated according to the equation of Cheng and Prusoff.

[6] = test system: MCF7 (human breast cancer) cells; assay: MTT viability assay, MCF7; assay type: cell-based; conditions: for IC50: Homo sapiens, MCF7, MTT, 24 h
Text: as §1, §2, §3

[7] = test system: I407 (human embryonic intestinal) cells; assay: MTT viability assay, I407; assay type: cell-based; conditions: Homo sapiens, 24 h, normal cells
Text: as §1, §2, §3

[8] = test system: PC-3 (human prostate adenocarcinoma) cells; assay: MTT viability assay, PC3; assay type: cell-based; conditions: for IC50: Homo sapiens, MTT, 24 h
Text: as §1, §2, §3

[9] = molecular target: T2, δ-OR (Homo sapiens, UniProt P41143); assay: Radioligand binding assay, δ-OR ([3H]deltorphin-2 displacement); conditions: [3H]deltorphin-2, membranes of CHO cells with human recombinant OR; ± SEM (n ≥ 3)
T2 construct: purchased PerkinElmer (Krakow, Poland); host or cells: CHO cells (membranes)
T2 sequence (P41143 whole entry): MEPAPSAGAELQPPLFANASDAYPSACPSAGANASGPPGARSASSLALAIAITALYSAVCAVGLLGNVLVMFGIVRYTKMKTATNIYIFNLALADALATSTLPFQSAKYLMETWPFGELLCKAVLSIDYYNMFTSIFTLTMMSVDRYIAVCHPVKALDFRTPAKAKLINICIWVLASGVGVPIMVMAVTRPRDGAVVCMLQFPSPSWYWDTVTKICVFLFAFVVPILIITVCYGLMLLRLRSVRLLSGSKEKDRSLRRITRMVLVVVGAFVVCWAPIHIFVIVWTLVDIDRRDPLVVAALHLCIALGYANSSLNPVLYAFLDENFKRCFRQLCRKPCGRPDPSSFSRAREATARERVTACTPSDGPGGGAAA
Procedure: as §4, §5, §6

[10] = test system: 3T3 (mouse embryonic fibroblast) cells; assay: MTT viability assay, 3T3; assay type: cell-based; conditions: 24 h, normal cells
Text: as §1, §2, §3

[11] = molecular target: T3, μ-OR (Homo sapiens, UniProt P35372); assay: Radioligand binding assay, μ-OR ([3H]DAMGO displacement); conditions: membranes of CHO cells with human recombinant OR, ± SEM (n ≥ 3)
T3 construct: purchased PerkinElmer (Krakow, Poland); host or cells: CHO cells (membranes)
T3 sequence (P35372 whole entry): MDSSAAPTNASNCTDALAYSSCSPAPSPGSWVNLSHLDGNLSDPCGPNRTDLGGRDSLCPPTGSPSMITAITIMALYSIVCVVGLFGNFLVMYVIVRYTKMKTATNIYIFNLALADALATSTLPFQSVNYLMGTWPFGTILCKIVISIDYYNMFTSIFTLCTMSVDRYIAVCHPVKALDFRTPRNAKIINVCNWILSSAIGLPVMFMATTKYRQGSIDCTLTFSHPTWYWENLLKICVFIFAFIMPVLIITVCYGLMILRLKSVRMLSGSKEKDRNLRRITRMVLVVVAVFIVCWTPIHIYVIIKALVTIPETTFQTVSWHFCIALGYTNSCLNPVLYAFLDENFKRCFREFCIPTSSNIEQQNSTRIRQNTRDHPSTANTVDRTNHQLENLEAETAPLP
Procedure: as §4, §5, §6

Row | SMILES | IC50 [1] | IC50 [2] | IC50 [3] | IC50 [4] | Ki [5] | IC50 [6] | IC50 [8] | Ki [9] | Ki (µM) κ-OR [5] | Ki [11] | Selectivity Index IC503T3/ IC50HeLa [3] | Selectivity Index IC50I407/ IC50HeLa [3] | Selectivity Index IC503T3/ IC50HT29 [4] | Selectivity Index IC50I407/ IC50HT29 ([4]; I407 normal cells as reference) | IC50 [7] | IC50 [10] | Selectivity Index IC50I407/ IC50MCF7 ([6]; I407 normal cells as reference) | Selectivity Index IC50I407/ IC50PC3 ([8]; I407 normal cells as reference) | Selectivity Index IC503T3/ IC50MCF7 ([6]; 3T3 normal cells as reference) | Selectivity Index IC503T3/ IC50PC3 ([8]; 3T3 normal cells as reference)
1 | Nc1ccc(CNC(=O)Cc2c[nH]c3ccccc23)cc1 [Compound 4] | > 500 µM | > 500 µM | 1.87 ± 0.02 µM | 0.96 ± 0.04 µM | 7.4 ± 1.3 µM | 0.84 ± 0.03 µM | > 500 µM |  |  |  | 0.337 |  | 0.656 |  | > 500 µM | 0.63 ± 0.02 µM |  |  | 0.75 | 
2 | NC(=O)CN(Cc1ccc(N)cc1)C(=O)Cc1c[nH]c2ccccc12 [Compound 6] | > 500 µM | > 500 µM | > 500 µM | > 500 µM | 26.7 ± 9.5 µM | > 500 µM | 166 ± 0.03 µM | 85.5 ± 2 µM |  | 451 ± 11 µM |  |  |  |  | > 500 µM | 0.11 ± 0.03 µM |  |  |  | 0.001
3 | Nc1ccc(CN(CCCO)C(=O)Cc2c[nH]c3ccccc23)cc1 [Compound 7] | > 500 µM | > 500 µM | > 500 µM | > 500 µM | 3.8 ± 0.3 µM | 0.49 ± 0.01 µM | > 500 µM | 115 ± 45 µM | low μM range |  |  |  |  |  | > 500 µM | > 500 µM |  |  |  | 

More lines, main results first:

Row | IC50 [1] | IC50 [2] | IC50 [3] | IC50 [4] | Ki [5] | IC50 [6] | IC50 [8] | Ki [9] | Ki (µM) κ-OR [5] | Ki [11] | SMILES | Selectivity Index IC503T3/ IC50HeLa [3] | Selectivity Index IC50I407/ IC50HeLa [3] | Selectivity Index IC503T3/ IC50HT29 [4] | Selectivity Index IC50I407/ IC50HT29 ([4]; I407 normal cells as reference) | IC50 [7] | IC50 [10] | Selectivity Index IC50I407/ IC50MCF7 ([6]; I407 normal cells as reference) | Selectivity Index IC50I407/ IC50PC3 ([8]; I407 normal cells as reference) | Selectivity Index IC503T3/ IC50MCF7 ([6]; 3T3 normal cells as reference) | Selectivity Index IC503T3/ IC50PC3 ([8]; 3T3 normal cells as reference)
4 | > 500 µM | > 500 µM | 25 ± 0.06 µM | 0.31 ± 0.06 µM | 5 ± 2.9 µM | > 500 µM | > 500 µM | 37.1 ± 1.4 µM |  |  | O=C(CCc1ccc(O)cc1)N(CCc1c[nH]c2ccccc12)Cc1ccccc1 [Compound 1] | 6.572 | 2.52 | 530 | 203.23 | 63 ± 0.06 µM | 164.3 ± 0.01 µM |  |  |  | 
5 | > 500 µM | > 500 µM | > 500 µM | > 500 µM | 2.5 ± 0.4 µM | 0.81 ± 0.03 µM | 2.13 ± 0.04 µM | 9 ± 0.6 µM | low μM range | 54.6 ± 3.5 µM | Nc1ccc(CC(=O)N(CCc2c[nH]c3ccccc23)Cc2ccccc2)cc1 [Compound 2] |  |  |  |  | 0.35 ± 0.03 µM | > 500 µM | 0.432 | 0.164 |  | 
6 | > 500 µM | > 500 µM | 5.64 ± 0.01 µM | > 500 µM | 7.8 ± 0.2 µM | > 500 µM | > 500 µM | 6.5 ± 0.8 µM |  | 10.7 ± 1.7 µM | Nc1ccc(CC(=O)Nc2ccc(CC(=O)N(CCc3c[nH]c4ccccc34)Cc3ccccc3)cc2)cc1 [Compound 3] | 0.089 | 13.29 |  |  | 75 ± 0.07 µM | 0.5 ± 0.04 µM |  |  |  | 
